Measured values from ChEMBL document CHEMBL1135579, “Serine-threonine protein phosphatase inhibitors: development of potential therapeutic strategies” (J Med Chem, 2002).

Tests used:
[1] = Inhibition of growth after 72 hr continuous exposure to test compounds in colon HT-29 tumor cell lines; format: functional; settings: Homo sapiens, HT-29, 72 h
[2] = Inhibition of growth after 72 hr continuous exposure to test compounds in Colon HCT 116 tumor cell lines; format: functional; settings: Homo sapiens, HCT-116, 72 h
[3] = Inhibition of growth after 72 hr continuous exposure to test compounds in Ovarian ADDP tumor cell lines; format: functional
[4] = Inhibition of growth after 72 hr continuous exposure to test compounds in Ovarian A2780 tumor cell lines; format: functional; settings: A2780, 72 h
[5] = Inhibition of growth after 72 hr continuous exposure to test compounds in Osteosarcoma 143B tumor cell lines; format: functional; settings: Homo sapiens
[6] = Exogenous inhibition concentration of Serine/threonine protein phosphatase 2B (PP2B)
[7] = Exogenous inhibition of Serine/threonine protein phosphatase 1 (PP1); set-up: species or system Homo sapiens
[8] = system: HCT-8; experiment: Reduction of tumor cell growth to 50% in Fostriecin analogues in HCT-8 colon cancer cell lines; format: functional; settings: Homo sapiens
[9] = system: L1210; experiment: Reduction of tumor cell growth to 50% in Fostriecin analogues in L1210 Leukemia cell lines; format: functional; settings: Mus musculus
[10] = system: Jurkat; experiment: Inhibition of production of beta-galactosidase thymidine kinase RGA in Jurkat cells; format: functional, cell-based; settings: Homo sapiens
[11] = system: Jurkat; experiment: Inhibition of production of beta-galactosidase IL-2 RGA in Jurkat cells; format: functional, cell-based; settings: Homo sapiens
[12] = Exogenous inhibition concentration of Serine/threonine protein phosphatase 2A (PP2A)
[13] = Exogenous inhibition concentration of Serine/threonine protein phosphatase 2C (PP2C); NI means no inhibition.

Q: Which GI50 [1] does the source give for `CCOC1OC(=O)[C@H]2[C@@H]1[C@@H]1CC[C@H]2O1` (stereo not given in full) here?
A: The GI50 was 26 µM.

Q: And the GI50 [2]?
A: Its GI50 is 80 µM.

Q: What about the GI50 [3] of the same compound?
A: Its GI50 is 107 µM.

Q: And the GI50 [4]?
A: Its GI50 is 100 µM.

Q: What about the GI50 [5] of the same compound?
A: The GI50 was 103 µM.

Q: With `CC[C@@H](C)[C@H]1NC(=O)[C@H]([C@@H](C)CC)NC(=O)[C@H]([C@@H](C)CC)NC(=O)[C@H]([C@@H](C)CC)NC(=O)[C@@H](Cc2ccccc2)NC(=O)[C@H](Cc2ccccc2)NC(=O)[C@@H]2CCCN2C(=O)[C@@H]2CCCN2C(=O)[C@H](C(C)C)NC1=O` as the compound, how does the IC50 [6] read?
A: Its IC50 is 5 µM.

Q: What does the source list for `C[C@@](O)(/C=C/[C@H]1CC=CC(=O)O1)[C@@H](C[C@@H](O)\C=C/C=C\C=C\CO)OP(=O)(O)O` [FOSTRIECIN]?
A: IC50 [7]: 131 µM; GI50 [8]: 2.3 µM; GI50 [9]: 0.21 µM

Q: For `CCCOC1OC(=O)[C@H]2[C@@H]1[C@@H]1CC[C@H]2O1` (stereo not given in full), which GI50 [1] is on record?
A: Its GI50 is 41 µM.

Q: And the GI50 [2]?
A: Its GI50 is 195 µM.

Q: What about the GI50 [3] of the same compound?
A: Its GI50 is 535 µM.

Q: What about the GI50 [4] of the same compound?
A: Its GI50 is 375 µM.

Q: And the GI50 [5]?
A: The GI50 was over 1000 µM.

Q: Which results are given for `CCCOC(=O)C1C(C(=O)O)C2CC[C@H]1O2` (stereo not given in full)?
A: GI50 [1]: 15 µM; GI50 [2]: 75 µM; GI50 [3]: 315 µM; GI50 [4]: 110 µM; GI50 [5]: 450 µM

Q: What does the source list for `C[C@@]12C(=O)OC(=O)[C@]1(C)[C@H]1CC[C@@H]2O1` [CANTHARIDIN]?
A: GI50 [1]: 6.4 µM; IC50 [7]: 0.5 µM; GI50 [2]: 9 µM; GI50 [3]: 11 µM; IC50 [6]: > 1000 µM; GI50 [4]: 10 µM; GI50 [5]: 10 µM

Q: What does the source list for `O=C(O)[C@@H]1[C@H](C(=O)O)[C@H]2CC[C@@H]1O2`?
A: IC50 [10]: 42 µM; IC50 [11]: > 100 µM

Q: With `C/C=C/C=C\C=C/[C@H](O)C[C@@H](OP(=O)(O)O)[C@](C)(O)/C=C/[C@H]1CC=CC(=O)O1` as the compound, how does the GI50 [8] read?
A: Its GI50 is 1.5 µM.

Q: And the GI50 [9]?
A: The GI50 was 0.22 µM.

Q: Which results are given for `C[C@@](O)(/C=C/[C@@H]1OC(=O)C=CC1O)[C@@H](C[C@@H](O)\C=C/C=C\C=C\CO)OP(=O)(O)O` (stereo not given in full)?
A: GI50 [8]: 4.2 µM; GI50 [9]: 0.83 µM

Q: With `CC(=O)OC(C)(C)[C@H]1CC[C@](C)([C@@H](O)CC[C@](C)(O)[C@H]2CC[C@H]3O[C@@H]([C@]4(C)CC[C@@H](Br)C(C)(C)O4)CC[C@]3(C)O2)O1` as the compound, how does the IC50 [7] read?
A: Its IC50 is over 1000 µM.

Q: And the IC50 [12]?
A: The IC50 was 4 µM.

Q: And the IC50 [6]?
A: Its IC50 is over 10000 µM.

Q: With `O=C1OC(=O)C2C3CCC(O3)C12` (stereo not given) as the compound, how does the GI50 [1] read?
A: Its GI50 is 33 µM.

Q: What about the IC50 [10] of the same compound?
A: The IC50 was 100 µM.

Q: What about the IC50 [11] of the same compound?
A: The IC50 was over 22 µM.

Q: What about the GI50 [2] of the same compound?
A: Its GI50 is 24 µM.

Q: What about the GI50 [3] of the same compound?
A: The GI50 was 47 µM.

Q: What about the GI50 [4] of the same compound?
A: The GI50 was 50 µM.

Q: And the GI50 [5]?
A: Its GI50 is 43 µM.

Q: Which results are given for `C[C@@](O)(/C=C/[C@H]1CC=CC(=O)O1)[C@H](O)C[C@@H](O)\C=C/C=C\C=C\CO`?
A: GI50 [8]: 3.7 µM; GI50 [9]: 2.5 µM

Q: For `C=CC[C@@H]1/C=C(\C)C[C@H](C)C[C@H](OC)[C@H]2O[C@@](O)(C(=O)C(=O)N3CCCC[C@H]3C(=O)O[C@H](/C(C)=C/[C@@H]3CC[C@@H](O)[C@H](OC)C3)[C@H](C)[C@@H](O)CC1=O)[C@H](C)C[C@@H]2OC` [TACROLIMUS ANHYDROUS], which IC50 [6] is on record?
A: Its IC50 is 0.0005 µM.

Q: Which IC50 [7] does the source give for `CC1(C(=O)O)C2CCC(O2)C1(C)C(=O)O` (stereo not given) here?
A: The IC50 was 0.6 µM.

Q: And the IC50 [12]?
A: The IC50 was 0.05 µM.

Q: What does the source list for `C[C@@](O)(/C=C/COC(=O)/C=C\CO)[C@@H](C[C@@H](O)\C=C/C=C\C=C\CO)OP(=O)(O)O`?
A: GI50 [8]: 56 µM; GI50 [9]: > 1 µM

Q: Which IC50 [7] does the source give for `C/C=C1/C(=O)C[C@@H](C(=O)O)[C@H](C)C(=O)N[C@@H](C(C)C)C(=O)N[C@@H](/C=C/C(C)=C/[C@H](C)[C@H](Cc2ccccc2)OC)[C@H](C)C(=O)N[C@@H](C(=O)O)CCC(=O)N1C` here?
A: The IC50 was 0.0018 µM.

Q: And the IC50 [13]?
A: Its IC50 is “no inhibition”.

Q: And the IC50 [6]?
A: The IC50 was 8700 µM.

Q: With `COC(=O)C1C(C(=O)O)C2CC[C@H]1O2` (stereo not given in full) as the compound, how does the GI50 [1] read?
A: Its GI50 is 105 µM.

Q: And the GI50 [2]?
A: Its GI50 is 76 µM.

Q: And the GI50 [3]?
A: The GI50 was 180 µM.

Q: And the GI50 [4]?
A: Its GI50 is 100 µM.

Q: What about the GI50 [5] of the same compound?
A: Its GI50 is 118 µM.

Q: Which results are given for `C[C@]12C(=O)OC(=O)[C@H]1C1CC[C@H]2O1` [PALASONIN]?
A: IC50 [7]: 0.7 µM; IC50 [12]: 0.12 µM

Q: With `Cn1cc2c3c1C(=O)C1=C(C3=NCC2)C2(C=C(Br)C(=O)C(Br)=C2)CCN1` [DISCORHABDIN] as the compound, how does the IC50 [6] read?
A: Its IC50 is 1.15 µM.
